In PMC8541017, “Potent and Selective Inhibitors of Human Monoamine Oxidase A from an Endogenous Lichen Fungus Diaporthe mahothocarpus” (Journal of Fungi, 2021):
Values joined by “and” are separate entries in the source; they are usually repeats but may differ in a detail not shown here. Equal entries are not always repeated. Where two headings read alike, the source gives them in different places.

How the values were obtained:
BChE = target: T1, BChE (Equus caballus, UniProt P81908); assay: biochemical; set-up: species or system horse; details: read-out: Residual Activity at 10 µM (%) BChE
T1 construct: from tissue; host or cells: horse serum
T1 sequence (P81908 whole entry): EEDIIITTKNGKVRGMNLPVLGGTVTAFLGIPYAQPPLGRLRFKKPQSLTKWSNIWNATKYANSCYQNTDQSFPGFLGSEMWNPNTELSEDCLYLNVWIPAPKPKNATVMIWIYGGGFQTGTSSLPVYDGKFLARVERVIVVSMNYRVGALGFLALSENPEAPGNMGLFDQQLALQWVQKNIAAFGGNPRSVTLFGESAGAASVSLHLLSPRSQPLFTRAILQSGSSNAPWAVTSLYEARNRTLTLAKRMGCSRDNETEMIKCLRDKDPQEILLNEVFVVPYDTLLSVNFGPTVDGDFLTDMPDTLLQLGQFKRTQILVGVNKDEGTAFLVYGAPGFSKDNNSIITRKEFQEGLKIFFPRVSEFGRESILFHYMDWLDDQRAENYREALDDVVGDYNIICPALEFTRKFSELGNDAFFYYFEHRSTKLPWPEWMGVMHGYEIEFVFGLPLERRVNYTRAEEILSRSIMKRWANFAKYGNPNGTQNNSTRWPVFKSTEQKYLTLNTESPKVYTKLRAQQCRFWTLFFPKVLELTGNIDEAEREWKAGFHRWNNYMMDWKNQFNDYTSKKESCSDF
Description: AChE from electric eel and BChE from horse serum were used for cholinesterases and assayed with a slight modification of the Ellman method. Shortly, after pre-incubating the enzyme and inhibitor for 15 min in 100 mM of sodium phosphate buffer (pH 7.5), 0.5 mM acetylthiocholine iodide (ATCI) or butyrylthiocholine iodide (BTCI) was added as a substrate for AChE or BChE assay, respectively. Then, 0.5 mM 5,5-dithiobis (2-nitrobenzoic acid) (DTNB) was added for color development for a final volume of 0.5 mL. Enzyme activity was measured for 15 min at room temperature in a kinetic mode at 412 nm.

BACE1 = BACE1 (Homo sapiens, UniProt P56817); assay: BACE1 activity assay (fluorescence kit); details: for IC50: IC50 BACE1; for remaining activity at 10 µM: read-out: Residual Activity at 10 µM (%) BACE1
BACE1, sequence (P56817 46-501): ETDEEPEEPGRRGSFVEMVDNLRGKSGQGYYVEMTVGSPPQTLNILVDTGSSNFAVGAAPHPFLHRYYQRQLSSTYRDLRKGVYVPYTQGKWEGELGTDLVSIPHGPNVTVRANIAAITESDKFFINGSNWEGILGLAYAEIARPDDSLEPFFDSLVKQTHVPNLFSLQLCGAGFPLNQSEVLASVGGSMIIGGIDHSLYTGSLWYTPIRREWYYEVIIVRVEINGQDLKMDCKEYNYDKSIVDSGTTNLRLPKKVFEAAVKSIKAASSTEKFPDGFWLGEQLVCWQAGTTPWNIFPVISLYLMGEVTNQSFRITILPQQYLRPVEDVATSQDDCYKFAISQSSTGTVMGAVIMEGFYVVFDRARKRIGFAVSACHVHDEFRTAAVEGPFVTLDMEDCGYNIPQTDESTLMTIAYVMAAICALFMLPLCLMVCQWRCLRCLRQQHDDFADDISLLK
Description: Assays for inhibitory activities of compounds against hMAO-A, hMAO-B, AChE, BChE, and BACE1 were performed at 10-µM concentration of inhibitor.

hMAO-A [1] = target: T2, hMAO-A (Homo sapiens, UniProt P21397); format: biochemical; details: for reversibility of hMAO-A inhibition: recovery test after dialysis; for residual hMAO-A activity after dialysis / residual hMAO-A activity before dialysis: ~2 × IC50: AT 0.040 µM, HAT 0.60 µM, MED 18.0 µM, toloxatone 2.0 µM, clorgyline 0.014 µM
T2 sequence (P21397 1-527): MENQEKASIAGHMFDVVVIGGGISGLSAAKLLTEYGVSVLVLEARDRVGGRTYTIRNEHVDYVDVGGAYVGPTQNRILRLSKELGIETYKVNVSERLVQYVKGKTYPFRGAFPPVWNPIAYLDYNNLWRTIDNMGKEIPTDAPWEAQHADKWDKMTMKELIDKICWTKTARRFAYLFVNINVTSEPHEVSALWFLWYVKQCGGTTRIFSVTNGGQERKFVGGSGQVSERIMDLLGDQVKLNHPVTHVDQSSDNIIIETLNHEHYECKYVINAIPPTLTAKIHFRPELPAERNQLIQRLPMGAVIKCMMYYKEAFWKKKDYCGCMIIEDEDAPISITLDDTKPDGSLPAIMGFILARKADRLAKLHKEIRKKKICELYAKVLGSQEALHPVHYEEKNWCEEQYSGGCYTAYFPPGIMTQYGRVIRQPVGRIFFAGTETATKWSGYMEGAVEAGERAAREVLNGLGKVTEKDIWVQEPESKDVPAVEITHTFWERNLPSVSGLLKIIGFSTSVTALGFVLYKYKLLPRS

AChE = target: T3, AChE (Electrophorus electricus, UniProt O42275); assay: biochemical; set-up: species or system electric eel; details: for remaining activity at 10 µM: read-out: Residual Activity at 10 µM (%) AChE
T3 construct: AChE from electric eel and BChE from horse serum were used; from tissue; host or cells: electric eel
T3 sequence (O42275 24-633): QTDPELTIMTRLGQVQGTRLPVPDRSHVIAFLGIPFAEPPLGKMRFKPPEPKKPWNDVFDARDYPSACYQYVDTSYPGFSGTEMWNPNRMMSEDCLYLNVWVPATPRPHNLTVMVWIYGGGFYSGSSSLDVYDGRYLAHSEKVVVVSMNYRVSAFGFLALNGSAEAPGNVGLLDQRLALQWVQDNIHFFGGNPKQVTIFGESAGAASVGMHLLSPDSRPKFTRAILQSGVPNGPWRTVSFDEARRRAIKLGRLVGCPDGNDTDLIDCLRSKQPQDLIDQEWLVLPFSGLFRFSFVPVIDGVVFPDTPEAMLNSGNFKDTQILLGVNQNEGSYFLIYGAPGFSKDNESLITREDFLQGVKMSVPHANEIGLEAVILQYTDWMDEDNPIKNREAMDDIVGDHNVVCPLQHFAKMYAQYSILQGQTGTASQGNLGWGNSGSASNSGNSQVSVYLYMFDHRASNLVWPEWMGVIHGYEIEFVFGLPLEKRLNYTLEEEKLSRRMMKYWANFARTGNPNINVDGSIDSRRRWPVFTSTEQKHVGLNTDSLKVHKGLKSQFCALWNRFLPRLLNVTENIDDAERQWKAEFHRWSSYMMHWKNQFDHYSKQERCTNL

topoisomerase II = details: cited from earlier work
hMAO-A [2] = target: T2, hMAO-A; assay: biochemical; details: for Residual Activity (%) hMAO-A: 1-µM concentration (footnote a); for inhibition type for hMAO-A: Lineweaver–Burk plot; for SI (selectivity index): hMAO-B/hMAO-A using IC50 values; for remaining activity at 2 µg/mL: read-out: Residual Activity at 2 µg/mL (%) hMAO-A
Description: (§1) Human recombinant MAO-A and MAO-B were assayed in a reaction mixture of 0.5 mL containing 50 mM sodium phosphate buffer (pH 7.2) and the substrates (0.06 mM kynuramine for hMAO-A and 0.3 mM benzylamine for hMAO-B). […] [30, 31]. The reactions were started with the addition of substrates without preincubation of the enzyme and inhibitor.

hMAO-B [3] = target: T4, hMAO-B (Homo sapiens, UniProt P27338); assay: biochemical; details: for Residual Activity (%) hMAO-B: 1-µM concentration (footnote a)
T4 sequence (P27338 1-520): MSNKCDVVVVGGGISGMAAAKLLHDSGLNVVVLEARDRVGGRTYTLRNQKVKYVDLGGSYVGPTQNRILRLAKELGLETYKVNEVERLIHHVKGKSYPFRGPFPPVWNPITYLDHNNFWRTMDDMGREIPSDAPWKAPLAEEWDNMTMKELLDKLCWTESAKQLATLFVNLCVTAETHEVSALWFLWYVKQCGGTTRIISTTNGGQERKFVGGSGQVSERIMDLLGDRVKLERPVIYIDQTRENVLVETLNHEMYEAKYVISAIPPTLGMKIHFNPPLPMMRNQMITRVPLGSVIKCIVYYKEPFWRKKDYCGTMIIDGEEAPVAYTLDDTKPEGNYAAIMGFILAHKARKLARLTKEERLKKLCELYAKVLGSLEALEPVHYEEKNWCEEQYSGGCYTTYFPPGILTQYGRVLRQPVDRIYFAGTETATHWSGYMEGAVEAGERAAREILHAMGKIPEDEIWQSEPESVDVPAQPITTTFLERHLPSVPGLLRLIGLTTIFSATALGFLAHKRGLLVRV
Description: as §1

hMAO-A [4] = target: T2, hMAO-A; details: cited from earlier work
hMAO-B [5] = target: T4, hMAO-B; set-up: method as in PMID 33530616; details: cited from earlier work
MAO = details: read-out: IC50 MAO inhibitory activity; cited from earlier work

Row | Compound | remaining activity at 10 µM (BChE) [%] | IC50 (BACE1) [µM] | remaining activity at 10 µM (BACE1) [%] | reversibility of hMAO-A inhibition (hMAO-A [1]) | residual hMAO-A activity after dialysis (hMAO-A [1]) [%] | residual hMAO-A activity before dialysis (hMAO-A [1]) [%] | IC50 (AChE) [µM] | remaining activity at 10 µM (AChE) [%] | Ki (hMAO-A [2]) [nM] | times higher hMAO-A inhibitory activity than toloxatone (hMAO-A [2]) [times] | Residual Activity (%) hMAO-A (hMAO-A [2]) [%] | IC50 (hMAO-A [2]; IC50 hMAO-A) [µM] | inhibition type for hMAO-A (hMAO-A [2]) | SI (selectivity index) (hMAO-A [2]) | remaining activity at 2 µg/mL (hMAO-A [2]) [%] | IC50 (hMAO-B [3]) [µM] | Residual Activity (%) hMAO-B (hMAO-B [3]) [%] | IC50 (hMAO-A [4]) [µM] | other results
1 | Cc1cc(O)cc2oc(=O)c3c(O)cc(O)cc3c12 [AT, alternariol] | 93.3 ± 4.1 | 36.7 ± 3.3 | 80.9 ± 0.2 | reversible inhibitors | 60.5 | 33.5 | 10 ± 0.9 | 58.7 ± 2 | 7.5 | 54.0 | −3.1 ± 0.0 | 0.02 ± 0.001 | reversible competitive inhibitors | 1035 | -5.41 ± 0.98 | 20.7 ± 2.2 | 75.6 ± 2.3 | – | concentration at which ROS formation and topoisomerase II interaction relate to toxicity (topoisomerase II): > 10 µM
2 | Cc1c(O)c(O)cc2oc(=O)c3c(O)cc(O)cc3c12 [HAT, 5′-hydroxy-alternariol] | 96.2 ± 2.3 | 24.7 | 71.3 ± 3.8 | reversible inhibitors | 79.4 | 42.1 | 19.9 ± 0.2 | 65.6 ± 3.8 | 116 | 3.5 | 17.7 ± 1.1 | 0.31 ± 0.02 | reversible competitive inhibitors | >129 | 3.39 ± 3.43 | > 40 | 83.3 ± 4.0 | – | times effective against hMAO-A than alternariol monomethyl ether (hMAO-A [2]; ratio of IC50 values): 5.5 times
3 | CC(=O)O[C@H]1C=CC(=O)O[C@H]1[C@@H]1[C@H](C)[C@H]2C=CC=C[C@@H]1O2 [MED, mycoepoxydiene] | 95.5 ± 5.5 | 35.9 ± 0.3 | 80.5 ± 2.7 | reversible inhibitors | 83.7 | 28.7 | – | 65.2 ± 2.7 | – | – | – | – | reversible competitive inhibitors | >4.59 | – | – | – | – | IC50 (AChE; read-out: IC50 AChE): 18.6 ± 1.3 µM; Ki (hMAO-A [2]; Lineweaver–Burk secondary plot, read-out: Ki hMAO-A): 3760 nM; remaining activity at 2 µg/mL (hMAO-A [2]; isolated compounds from ELF29, 2 µg/mL): 66.7 ± 1.84%; IC50 (hMAO-A [2]; read-out: IC50 hMAO-A): 8.68 µM and 8.7 µM; remaining activity at 10 µM (hMAO-A [2]; read-out: Residual Activity at 10 µM (%) hMAO-A): 42.7 ± 0.9%; IC50 (hMAO-B [3]; read-out: IC50 hMAO-B): > 40 µM; remaining activity at 10 µM (hMAO-B [3]; read-out: Residual Activity at 10 µM (%) hMAO-B): 85.4 ± 6.9%
4 | COc1cc(O)c2c(=O)oc3cc(O)cc(C)c3c2c1 [alternariol monomethyl ether] | – | – | – | – | – | – | – | – | – | – | – | – | – | – | – | – | – | 1.71 | –
5 | CC1CC(=O)c2c(O)cccc2O1 (centres unmarked) [hydroxy-2-methyl-chroman-4-one] | – | – | – | – | – | – | – | – | – | – | – | – | – | – | – | – | – | 14 | IC50 (hMAO-B [5]): 3.23 µM
6 | CCCCCC(=O)c1c(O)cc2c(c1O)C(=O)c1c(O)cc(OC)cc1C2=O [solorinic acid] | – | – | – | – | – | – | – | – | – | – | – | – | – | – | – | – | – | – | IC50 (MAO): 14.3 µM
